Results: patent publication US9023821B2, “Use of MicroRNA for treating diseases associated with a dysfunction of the cilia in multiciliated epithelial cells” (Centre National de la Recherche Scientifique, priority 2009, dated 2015)

How the values were obtained:
[1] = tested on: human airway epithelial cells (HAECs); experiment: High-throughput sequencing (HTS) of miRNAs at four stages of differentiation of HAECs; conditions: for Modulation (ratio of the level of intensity of expression in log2 in two stages of differentiation) measured by high-throughput sequencing, D7 − D0 / Modulation (ratio of the level of intensity of expression in log2 in two stages of differentiation) measured by high-throughput sequencing, FC − D7 / Modulation (ratio of the level of intensity of expression in log2 in two stages of differentiation) measured by high-throughput sequencing, WD − D0 / Modulation (ratio of the level of intensity of expression in log2 in two stages of differentiation) measured by high-throughput sequencing, WD − FC / Level of intensity of expression in log2 measured by high-throughput sequencing, D0 / Level of intensity of expression in log2 measured by high-throughput sequencing, D7 / Level of intensity of expression in log2 measured by high-throughput sequencing, FC / Level of intensity of expression in log2 measured by high-throughput sequencing, WD: Table VI; for Abundance (%), D0: ALI-D0; for Abundance (%), D7: ALI-D7; for Abundance (%), FC: ALI-FC; for Abundance (%), WD: ALI-WD; for Level of intensity of expression in log2 At the differentiated stage (WD) measured in HTS: healthy human airway epithelial tissue; for Level of intensity of expression in log2 measured by high-throughput sequencing, D0: stage D0; for Level of intensity of expression in log2 measured by high-throughput sequencing, D7: stage D7; for Level of intensity of expression in log2 measured by high-throughput sequencing, FC: stage FC; for Level of intensity of expression in log2 At the differentiated stage (WD) measured in HTS / Level of intensity of expression in log2 measured by high-throughput sequencing, WD: stage WD
Outline: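 Differentiation time course at air-liquid interface: 0, 7, ~14 (first cilia) and ~21 days (fully differentiated). Sequencing counts per strand were normalized to 10^6 sequences and analysed by linear model with empirical Bayesian moderation.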

[2] = tested on: human airway epithelial cells (HAECs); experiment: Agilent miRNA chips, miRNA expression at four stages of differentiation of HAECs; conditions: for Modulation (ratio of the level of intensity of expression in log2 in two stages of differentiation) measured with the Agilent chips, D7 − D0 / Modulation (ratio of the level of intensity of expression in log2 in two stages of differentiation) measured with the Agilent chips, FC − D7 / Modulation (ratio of the level of intensity of expression in log2 in two stages of differentiation) measured with the Agilent chips, WD − D0 / Modulation (ratio of the level of intensity of expression in log2 in two stages of differentiation) measured with the Agilent chips, WD − FC / Level of intensity of expression in log2 measured with the Agilent chips, D0 / Level of intensity of expression in log2 measured with the Agilent chips, D7 / Level of intensity of expression in log2 measured with the Agilent chips, FC / Level of intensity of expression in log2 measured with the Agilent chips, WD: Table VI; for Level of intensity of expression in log2 measured with the Agilent chips, D0: stage D0; for Level of intensity of expression in log2 measured with the Agilent chips, D7: stage D7; for Level of intensity of expression in log2 measured with the Agilent chips, FC: stage FC; for Level of intensity of expression in log2 measured with the Agilent chips, WD: stage WD
Outline: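 Patient RNA samples, the same ones analysed by high-throughput sequencing, were first labelled, then hybridized onto arrays carrying 866 human and 89 human viral miRNAs (miRBase v.12.0), following the supplied labelling and hybridization protocol.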

[3] = tested on: basal cells and pyramidal cells of the airway epithelium; experiment: miRNA expression in sorted basal cells versus pyramidal cells (ciliated + secretory), HTS and Agilent chips; design: species or system human; conditions: for Modulation of expression of the miRNAs in pyramidal cells (323(−)) relative to basal cells 323(+): HTS and Agilent chips; for Intensity of the level of expression in log2 in pyramidal cells (323(−)): pyramidal cells (ciliated + secretory)
Outline: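 Sorted basal versus ciliated/mucus-secreting cells; markers CD151 and tissue factor; donors n=3; miRNA by Agilent chip or HTS.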

| Substance | Modulation (ratio of the level of intensity of expression in log2 in two stages of differentiation) measured by high-throughput sequencing, D7 − D0 [1] | Modulation (ratio of the level of intensity of expression in log2 in two stages of differentiation) measured by high-throughput sequencing, FC − D7 [1] | Modulation (ratio of the level of intensity of expression in log2 in two stages of differentiation) measured by high-throughput sequencing, WD − D0 [1] | Modulation (ratio of the level of intensity of expression in log2 in two stages of differentiation) measured by high-throughput sequencing, WD − FC [1] | Level of intensity of expression in log2 At the differentiated stage (WD) measured in HTS [1] | Level of intensity of expression in log2 measured by high-throughput sequencing, D0 [1] | Level of intensity of expression in log2 measured by high-throughput sequencing, D7 [1] | Level of intensity of expression in log2 measured by high-throughput sequencing, FC [1] | Level of intensity of expression in log2 measured by high-throughput sequencing, WD [1] | Modulation (ratio of the level of intensity of expression in log2 in two stages of differentiation) measured with the Agilent chips, D7 − D0 [2] | Modulation (ratio of the level of intensity of expression in log2 in two stages of differentiation) measured with the Agilent chips, FC − D7 ([2]; FC − D7) | Modulation (ratio of the level of intensity of expression in log2 in two stages of differentiation) measured with the Agilent chips, WD − D0 [2] | Modulation (ratio of the level of intensity of expression in log2 in two stages of differentiation) measured with the Agilent chips, WD − FC ([2]; WD − FC) | Level of intensity of expression in log2 measured with the Agilent chips, D0 [2] | Level of intensity of expression in log2 measured with the Agilent chips, D7 [2] | Level of intensity of expression in log2 measured with the Agilent chips, FC [2] | Level of intensity of expression in log2 measured with the Agilent chips, WD [2] | Modulation of expression of the miRNAs in pyramidal cells (323(−)) relative to basal cells 323(+) [3] | Intensity of the level of expression in log2 in basal cells (323(+)) [3] | Intensity of the level of expression in log2 in pyramidal cells (323(−)) [3] | other results |
| --- | --- | --- | --- | --- | --- | --- | --- | --- | --- | --- | --- | --- | --- | --- | --- | --- | --- | --- | --- | --- | --- |
| hsa-miR-203: human miRNA, SEQ ID No. 19 (GUGAAAUGUUUAGGACCACUAG; expressed or natural sequence; listed as Homo sapiens) | 0.11 log2 | −0.21 log2 | 1.08 log2 | 1.18 log2 | 14.55 log2 | 13.50 log2 | 13.60 log2 | 13.39 log2 | 14.57 log2 | 0.97 log2 | −0.67 log2 | 0.44 log2 | 0.13 log2 | 10.64 log2 | 11.61 log2 | 10.95 log2 | 11.08 log2 | −3.50 | 3.64 log2 | 0.14 log2 | Modulation (ratio of the level of intensity of expression in log2 in two stages of differentiation), D7 − D0 ([1]; HTS): 0.11 log2; Modulation (ratio of the level of intensity of expression in log2 in two stages of differentiation), FC − D7 ([1]; HTS): −0.21 log2; Modulation (ratio of the level of intensity of expression in log2 in two stages of differentiation), WD − FC ([1]; HTS): 1.18 log2; Abundance (%), D0 ([1]; HTS): 2.53%; Level of intensity of expression in log2, D0 ([1]; HTS, ALI-D0 (proliferation)): 13.49 log2; Abundance (%), D7 ([1]; HTS): 2.73%; Abundance (%), FC ([1]; HTS): 2.29%; Abundance (%), WD ([1]; HTS): 3.92% |
| hsa-miR-205: human miRNA, SEQ ID No. 20 (UCCUUCAUUCCACCGGAGUCUG; expressed or natural sequence; listed as Homo sapiens) | 0.62 log2 | −1.12 log2 | −0.06 log2 | 0.44 log2 | 15.24 log2 | 14.61 log2 | 15.23 log2 | 14.11 log2 | 14.55 log2 | 1.00 log2 | −0.72 log2 | −0.11 log2 | −0.39 log2 | 13.18 log2 | 14.18 log2 | 13.46 log2 | 13.07 log2 | −7.00 | 12.44 log2 | 5.44 log2 | Modulation (ratio of the level of intensity of expression in log2 in two stages of differentiation), D7 − D0 ([1]; HTS): 0.62 log2; Modulation (ratio of the level of intensity of expression in log2 in two stages of differentiation), FC − D7 ([1]; HTS): −1.12 log2; Modulation (ratio of the level of intensity of expression in log2 in two stages of differentiation), WD − FC ([1]; HTS): 0.44 log2; Abundance (%), D0 ([1]; HTS): 5.48%; Abundance (%), D7 ([1]; HTS): 8.43%; Abundance (%), FC ([1]; HTS): 3.76%; Abundance (%), WD ([1]; HTS): 3.87%; cell type in which the miRNA is specifically expressed ([3]; sorted ciliated/pyramidal versus basal cells): more specific to the basal cells |
| hsa-miR-210: human miRNA, SEQ ID No. 22 | −0.96 log2 | −0.74 log2 | −1.80 log2 | −0.10 log2 | 9.29 log2 | 12.29 log2 | 11.33 log2 | 10.60 log2 | 10.49 log2 | 0.18 log2 | −0.63 log2 | −0.56 log2 | −0.11 log2 | 9.08 log2 | 9.25 log2 | 8.63 log2 | 8.52 log2 | −2.03 | 6.60 log2 | 4.57 log2 | Modulation (ratio of the level of intensity of expression in log2 in two stages of differentiation), D7 − D0 ([1]; HTS): −0.96 log2; Modulation (ratio of the level of intensity of expression in log2 in two stages of differentiation), FC − D7 ([1]; HTS): −0.74 log2; Modulation (ratio of the level of intensity of expression in log2 in two stages of differentiation), WD − FC ([1]; HTS): −0.10 log2; Abundance (%), D0 ([1]; HTS): 1.10%; Abundance (%), D7 ([1]; HTS): 0.57%; Abundance (%), FC ([1]; HTS): 0.33%; Abundance (%), WD ([1]; HTS): 0.23% |
| hsa-miR-224: human miRNA, SEQ ID No. 24 (CAAGUCACUAGUGGUUCCGUU; expressed or natural sequence; listed as Homo sapiens) | 1.52 log2 | −0.72 log2 | 1.63 log2 | 0.83 log2 | 14.10 log2 | 9.59 log2 | 11.12 log2 | 10.39 log2 | 11.22 log2 | 2.55 log2 | −0.87 log2 | 1.68 log2 | 0.00 log2 | 6.84 log2 | 9.40 log2 | 8.52 log2 | 8.52 log2 | −2.84 | 3.65 log2 | 0.82 log2 | Modulation (ratio of the level of intensity of expression in log2 at two stages of differentiation), FC − D7 ([2]; FC − D7, Agilent miRNA chips, Table V): −0.87 log2; Modulation (ratio of the level of intensity of expression in log2 at two stages of differentiation), WD − FC ([2]; WD − FC, Agilent miRNA chips, Table V): 0.00 log2 |
